Assay results as given in patent EP0882734B1, “5'-Deoxy-cytidine derivatives” (F. Hoffmann-La Roche AG, priority 1997, dated 1998).
Marks after values point to notes of the source that are not given here.

Columns and labels:
[1] = test system: human prostate cancer xenograft PC-3; assay: Enhancement of capecitabine antitumor activity in PC-3 xenograft; conditions: oral
Procedure: Compound A of Example 6 was examined for its activity to enhance the efficacy of capecitabine in BALB/c nude mice bearing the human prostate cancer xenograft PC-3. Compound A and capecitabine were orally given simultaneously or sequentially 5 successive days per week for 3 weeks starting on day 53 after the tumor inoculation when the tumor becomes palpable. On day 75, tumor volume gain and the percentage of the tumor growth inhibition were calculated.

[2] = mouse, in vivo, 420 min
Procedure: In this study, fluoropyrimidines, such as 5-FU, doxifluridine [5'-deoxy-5-fluorouridine] and capecitabine [5'-deoxy-5-fluoro-N^4-(n-pentyloxycarbonyl)cytidine], were given to BALB/c nude mice bearing the human gastric cancer xenograft MKN28 in combination with either compound A or 5-EU. Then, 5-FU levels in the plasma and tumor tissues were measured at 0.25, 0.5, 2, 4 and 7 hours after each fluoropyrimidine administration (n = 3 mice), and 5-FU AUC was calculated. […]

DPD [3] = biological target: T1, DPD (Homo sapiens, UniProt Q12882); assay: DPD activity in liver and tumor tissues of PC-3 xenograft mice after administration; assay type: in vivo, BALB/c nude mice; conditions: Tumor (PC-3), Compound A 0.5 mmol/kg, 5-EU 0.05 µmol/kg
T1 construct: The liver and tumor tissues were resected out from each group of three mice; from tissue; host or cells: liver (mouse host) and PC-3 tumour xenograft tissue from BALB/c nude mice
T1 sequence (Q12882 4-1025): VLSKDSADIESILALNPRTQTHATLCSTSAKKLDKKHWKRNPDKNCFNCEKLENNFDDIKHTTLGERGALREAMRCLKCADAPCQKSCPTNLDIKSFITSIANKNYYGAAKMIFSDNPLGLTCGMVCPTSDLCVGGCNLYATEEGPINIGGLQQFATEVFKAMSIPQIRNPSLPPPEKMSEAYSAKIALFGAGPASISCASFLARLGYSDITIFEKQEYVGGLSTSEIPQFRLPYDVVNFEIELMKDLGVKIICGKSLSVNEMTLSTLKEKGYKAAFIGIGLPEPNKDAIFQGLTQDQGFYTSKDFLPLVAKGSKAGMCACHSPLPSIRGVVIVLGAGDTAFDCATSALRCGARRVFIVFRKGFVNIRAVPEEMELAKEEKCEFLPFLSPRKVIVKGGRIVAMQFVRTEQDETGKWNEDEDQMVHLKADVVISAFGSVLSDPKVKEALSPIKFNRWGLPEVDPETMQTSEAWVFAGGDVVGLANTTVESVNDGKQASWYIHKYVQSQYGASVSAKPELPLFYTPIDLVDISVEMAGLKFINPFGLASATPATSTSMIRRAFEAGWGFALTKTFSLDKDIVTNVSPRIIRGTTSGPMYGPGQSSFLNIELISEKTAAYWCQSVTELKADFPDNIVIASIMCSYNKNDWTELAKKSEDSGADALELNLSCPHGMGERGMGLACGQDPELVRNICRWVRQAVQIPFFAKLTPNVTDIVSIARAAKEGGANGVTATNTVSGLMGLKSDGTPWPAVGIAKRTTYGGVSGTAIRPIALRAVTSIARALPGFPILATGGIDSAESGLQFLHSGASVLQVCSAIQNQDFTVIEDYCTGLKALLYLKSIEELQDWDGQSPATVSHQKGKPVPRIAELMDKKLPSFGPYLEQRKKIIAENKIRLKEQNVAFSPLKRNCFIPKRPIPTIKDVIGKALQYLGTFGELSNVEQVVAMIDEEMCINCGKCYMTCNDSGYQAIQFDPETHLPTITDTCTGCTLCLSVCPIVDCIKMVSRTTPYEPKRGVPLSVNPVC
Procedure: (§1) The liver and tumor tissues were resected out from each group of three mice at 2 and 8 hours after the administration of the Compound A (0.5 mmol/kg) and 5-EU ([…]). DPD activity in these tissues was then measured as described elsewhere (Naguib et al., Cancer Research 45, 5405-5412, 1985). […] Table 1. Inhibition of DPD activity by Compound A of Example 6

DPD [4] = biological target: T2, DPD (Mus musculus, UniProt Q8CHR6); assay: as above; assay type: in vivo, BALB/c nude mice; conditions: Liver, Compound A 0.5 mmol/kg, 5-EU 0.05 µmol/kg
T2 construct: The liver and tumor tissues were resected out from each group of three mice; from tissue; host or cells: liver (mouse host) and PC-3 tumour xenograft tissue from BALB/c nude mice
T2 sequence (Q8CHR6 1-1025): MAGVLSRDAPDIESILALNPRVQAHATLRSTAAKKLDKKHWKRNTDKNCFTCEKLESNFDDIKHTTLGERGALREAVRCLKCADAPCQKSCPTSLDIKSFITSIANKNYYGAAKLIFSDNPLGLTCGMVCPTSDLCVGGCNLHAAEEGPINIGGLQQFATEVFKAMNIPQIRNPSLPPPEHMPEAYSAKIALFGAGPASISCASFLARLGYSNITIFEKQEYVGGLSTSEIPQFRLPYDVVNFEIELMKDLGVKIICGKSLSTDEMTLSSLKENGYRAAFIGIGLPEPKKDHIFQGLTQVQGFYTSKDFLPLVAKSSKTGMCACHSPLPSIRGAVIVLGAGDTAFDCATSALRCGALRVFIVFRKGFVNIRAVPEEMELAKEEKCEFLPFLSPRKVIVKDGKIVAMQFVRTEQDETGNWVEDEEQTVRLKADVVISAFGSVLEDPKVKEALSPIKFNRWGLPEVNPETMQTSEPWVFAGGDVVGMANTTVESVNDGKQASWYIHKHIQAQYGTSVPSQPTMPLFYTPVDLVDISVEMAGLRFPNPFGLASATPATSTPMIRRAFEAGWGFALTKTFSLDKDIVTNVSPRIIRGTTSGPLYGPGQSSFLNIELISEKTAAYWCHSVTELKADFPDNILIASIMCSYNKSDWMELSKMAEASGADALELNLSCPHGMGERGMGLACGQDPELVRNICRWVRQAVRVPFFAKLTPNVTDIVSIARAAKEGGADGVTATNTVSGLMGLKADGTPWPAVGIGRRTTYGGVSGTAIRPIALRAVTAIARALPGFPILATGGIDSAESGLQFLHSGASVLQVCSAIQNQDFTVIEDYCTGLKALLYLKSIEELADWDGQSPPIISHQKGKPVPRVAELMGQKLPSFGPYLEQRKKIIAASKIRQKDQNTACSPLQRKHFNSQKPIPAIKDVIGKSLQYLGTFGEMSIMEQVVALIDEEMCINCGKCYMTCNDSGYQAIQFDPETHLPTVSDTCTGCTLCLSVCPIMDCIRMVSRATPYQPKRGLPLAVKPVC
Procedure: as §1

[5] = Cytotoxicity of compound A itself (data not shown)
[6] = Capecitabine 1.0 mmol/kg/d + Compound A 1.0 µmol/kg/d given one hour prior to capecitabine
[7] = Capecitabine 1.0 mmol/kg/d + Compound A 1.0 µmol/kg/d given simultaneously
[8] = 2 hr after administration, control 31
[9] = 8 hr after administration, control 29
[10] = 2 hr after administration, control 288
[11] = 8 hr after administration, control 162

CCCCCOC(=O)Nc1nc(=O)n([C@@H]2O[C@H](C)[C@@H](O)[C@H]2O)cc1F [Capecitabine, 5'-deoxy-5-fluoro-N^4-(n-pentyloxycarbonyl)cytidine]
Tumor growth inhibition (%) Day 75 ([1]; Capecitabine 1.0 mmol/kg/d alone, 5 successive days per week for 3 weeks): 23% | Tumor volume change (mm^3) Day 53-75 ([1]; Capecitabine 1.0 mmol/kg/d alone, 5 successive days per week for 3 weeks, control 981): 757 mm^3 | Body weight change (g) Day 75 ([1]; Capecitabine 1.0 mmol/kg/d alone, control -3.6): -3.4 g | 5-FU AUC Tumor [2]: 30 nmolohr/mL

C#Cc1cn([C@@H]2O[C@H](C)[C@@H](O)[C@H]2O)c(=O)nc1NC(=O)OCCCCC [Compound A, 5'-deoxy-5-ethynyl-N^4-(n-pentyloxycarbonyl)cytidine]
Body weight change (g) Day 75 [1, 6]: -0.3 g | Tumor growth inhibition (%) Day 75 [1, 6]: 80% | Tumor volume change (mm^3) Day 53-75 ([1]; Capecitabine 1.0 mmol/kg/d + Compound A 1.0 µmol/kg/d given one hour prior to capecitabine, p < 0.05 vs control): 201* mm^3 | Body weight change (g) Day 75 [1, 7]: -1.8 g | Tumor growth inhibition (%) Day 75 [1, 7]: 67% | Tumor volume change (mm^3) Day 53-75 ([1]; Capecitabine 1.0 mmol/kg/d + Compound A 1.0 µmol/kg/d given simultaneously, p < 0.05 vs control): 323* mm^3 | DPD activities (DPD [3]; [8]): 9 pmol/mg protein/min | DPD activities (DPD [3]; [9]): 9 pmol/mg protein/min | DPD activities (DPD [4]; [10]): 177 pmol/mg protein/min | DPD activities (DPD [4]; [11]): 326 pmol/mg protein/min | cytotoxicity [5]: not cytotoxic

C[C@H]1O[C@@H](n2cc(F)c(=O)[nH]c2=O)[C@H](O)[C@@H]1O [Doxifluridine, 5'-deoxy-5-fluorouridine]
5-FU AUC Plasma [2]: 2.6 nmolohr/mL | 5-FU AUC Tumor [2]: 8.0 nmolohr/mL

C#Cc1c[nH]c(=O)[nH]c1=O [Example 5-EU, 5-ethynyluracil]
DPD activities (DPD [3]; [8]): 17 pmol/mg protein/min | DPD activities (DPD [3]; [9]): 13 pmol/mg protein/min | DPD activities (DPD [4]; [10]): 46 pmol/mg protein/min | DPD activities (DPD [4]; [11]): 83 pmol/mg protein/min
